Reference: ChEMBL document CHEMBL1201862, “PubChem BioAssay data set” (2004)
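Exposure lasted 48 hours, with cells grown in 96-well plates and compounds tested at five concentrations. GI50 is the concentration that inhibits growth by half.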 Calls of active or inactive are those of the source. Cut-off read from the data, not from the text of the source: active = GI50 up to about 1.1 µM and inactive = higher.

How the values were obtained:
Test in all cases: inhibition of tumour cell growth, NCI panel, 48 h
[1] = test system: 786-0
[2] = test system: A498
[3] = test system: A549
[4] = test system: ACHN
[5] = test system: BT-549
[6] = test system: CAKI-1
[7] = test system: CCRF-CEM
[8] = test system: COLO 205
[9] = test system: DU-145
[10] = test system: EKVX
[11] = test system: HCC 2998
[12] = test system: HCT-116
[13] = test system: HCT-15
[14] = test system: HL-60
[15] = test system: HOP-62
[16] = test system: HOP-92
[17] = test system: HT-29
[18] = test system: Hs-578T
[19] = test system: IGROV-1
[20] = test system: K562
[21] = test system: KM12
[22] = test system: LOX IMVI
[23] = test system: M14
[24] = test system: MCF7
[25] = test system: MDA-MB-231
[26] = test system: MDA-MB-435
[27] = test system: MDA-N
[28] = test system: MOLT-4
[29] = test system: Malme-3M
[30] = test system: NCI-H226
[31] = test system: NCI-H23
[32] = test system: NCI-H460
[33] = test system: NCI-H522
[34] = test system: NCI/ADR-RES
[35] = test system: OVCAR-3
[36] = test system: OVCAR-5
[37] = test system: OVCAR-8
[38] = test system: PC-3
[39] = test system: RPMI-8226
[40] = test system: RXF 393
[41] = test system: SF-268
[42] = test system: SF-295
[43] = test system: SF-539
[44] = test system: SK-MEL-28
[45] = test system: SK-MEL-2
[46] = test system: SK-MEL-5
[47] = test system: SK-OV-3
[48] = test system: SN12C
[49] = test system: SNB-19
[50] = test system: SNB-75
[51] = test system: SR
[52] = test system: SW-620
[53] = test system: T47D
[54] = test system: TK-10
[55] = test system: U-251
[56] = test system: UACC-257
[57] = test system: UACC-62
[58] = test system: UO-31
[59] = test system: OVCAR-4

Question: With `CCOC(=O)NC(Nc1cccc(C(F)(F)F)c1)(C(F)(F)F)C(F)(F)F` as the compound, how does the GI50 [1] read?
Answer: Its GI50 is > 100 µM (inactive).

Question: What about the GI50 [2] of the same compound?
Answer: The GI50 was > 100 µM (inactive).

Question: And the GI50 [3]?
Answer: Its GI50 is > 100 µM (inactive).

Question: What about the GI50 [4] of the same compound?
Answer: Its GI50 is > 100 µM (inactive).

Question: And the GI50 [5]?
Answer: The GI50 was > 100 µM (inactive).

Question: And the GI50 [6]?
Answer: Its GI50 is > 100 µM (inactive).

Question: What about the GI50 [7] of the same compound?
Answer: The GI50 was > 100 µM (inactive).

Question: What about the GI50 [8] of the same compound?
Answer: The GI50 was > 100 µM (inactive).

Question: What about the GI50 [9] of the same compound?
Answer: Its GI50 is > 100 µM (inactive).

Question: What about the GI50 [10] of the same compound?
Answer: The GI50 was > 100 µM (inactive).

Question: What about the GI50 [11] of the same compound?
Answer: Its GI50 is > 100 µM (inactive).

Question: And the GI50 [12]?
Answer: The GI50 was > 100 µM (inactive).

Question: And the GI50 [13]?
Answer: Its GI50 is over 100 µM.

Question: What about the GI50 [14] of the same compound?
Answer: The GI50 was > 100 µM (inactive).

Question: And the GI50 [15]?
Answer: The GI50 was > 100 µM (inactive).

Question: And the GI50 [16]?
Answer: The GI50 was > 100 µM (inactive).

Question: What about the GI50 [17] of the same compound?
Answer: Its GI50 is > 100 µM (inactive).

Question: What about the GI50 [18] of the same compound?
Answer: The GI50 was > 100 µM (inactive).

Question: And the GI50 [19]?
Answer: Its GI50 is > 100 µM (inactive).

Question: What about the GI50 [20] of the same compound?
Answer: The GI50 was > 100 µM (inactive).

Question: What about the GI50 [21] of the same compound?
Answer: The GI50 was > 100 µM (inactive).

Question: And the GI50 [22]?
Answer: Its GI50 is > 100 µM (inactive).

Question: What about the GI50 [23] of the same compound?
Answer: Its GI50 is > 100 µM (inactive).

Question: What about the GI50 [24] of the same compound?
Answer: Its GI50 is > 100 µM (inactive).

Question: And the GI50 [25]?
Answer: Its GI50 is > 100 µM (inactive).

Question: What about the GI50 [26] of the same compound?
Answer: The GI50 was > 100 µM (inactive).

Question: And the GI50 [27]?
Answer: The GI50 was > 100 µM (inactive).

Question: And the GI50 [28]?
Answer: Its GI50 is > 100 µM (inactive).

Question: And the GI50 [29]?
Answer: Its GI50 is > 100 µM (inactive).

Question: And the GI50 [30]?
Answer: The GI50 was > 100 µM (inactive).

Question: And the GI50 [31]?
Answer: The GI50 was > 100 µM (inactive).

Question: And the GI50 [32]?
Answer: The GI50 was > 100 µM (inactive).

Question: And the GI50 [33]?
Answer: The GI50 was > 100 µM (inactive).

Question: What about the GI50 [34] of the same compound?
Answer: Its GI50 is > 100 µM (inactive).

Question: And the GI50 [35]?
Answer: The GI50 was > 100 µM (inactive).

Question: What about the GI50 [36] of the same compound?
Answer: Its GI50 is > 100 µM (inactive).

Question: And the GI50 [37]?
Answer: The GI50 was > 100 µM (inactive).

Question: And the GI50 [38]?
Answer: The GI50 was > 100 µM (inactive).

Question: What about the GI50 [39] of the same compound?
Answer: The GI50 was > 100 µM (inactive).

Question: What about the GI50 [40] of the same compound?
Answer: Its GI50 is > 100 µM (inactive).

Question: And the GI50 [41]?
Answer: The GI50 was > 100 µM (inactive).

Question: What about the GI50 [42] of the same compound?
Answer: The GI50 was > 100 µM (inactive).

Question: And the GI50 [43]?
Answer: Its GI50 is > 100 µM (inactive).

Question: And the GI50 [44]?
Answer: Its GI50 is > 100 µM (inactive).

Question: What about the GI50 [45] of the same compound?
Answer: Its GI50 is > 100 µM (inactive).

Question: What about the GI50 [46] of the same compound?
Answer: Its GI50 is > 100 µM (inactive).

Question: What about the GI50 [47] of the same compound?
Answer: Its GI50 is > 100 µM (inactive).

Question: And the GI50 [48]?
Answer: Its GI50 is > 100 µM (inactive).

Question: What about the GI50 [49] of the same compound?
Answer: Its GI50 is > 100 µM (inactive).

Question: What about the GI50 [50] of the same compound?
Answer: Its GI50 is > 100 µM (inactive).

Question: What about the GI50 [51] of the same compound?
Answer: The GI50 was > 100 µM (inactive).

Question: What about the GI50 [52] of the same compound?
Answer: Its GI50 is > 100 µM (inactive).

Question: And the GI50 [53]?
Answer: The GI50 was > 100 µM (inactive).

Question: And the GI50 [54]?
Answer: Its GI50 is > 100 µM (inactive).

Question: What about the GI50 [55] of the same compound?
Answer: Its GI50 is > 100 µM (inactive).

Question: And the GI50 [56]?
Answer: Its GI50 is > 100 µM (inactive).

Question: What about the GI50 [57] of the same compound?
Answer: Its GI50 is > 100 µM (inactive).

Question: And the GI50 [58]?
Answer: The GI50 was 93.8 µM (inactive).

Question: Which results are given for `Cc1cc(=O)nc(Sc2ccc([N+](=O)[O-])cc2[N+](=O)[O-])[nH]1`?
Answer: GI50 [1]: 16.7 µM (inactive); GI50 [2]: > 100 µM (inactive); GI50 [3]: 18.5 µM (inactive); GI50 [4]: 19.8 µM (inactive); GI50 [5]: 12.8 µM (inactive); GI50 [6]: 15.1 µM (inactive); GI50 [7]: 0.822 µM (active); GI50 [8]: 4.65 µM (inactive); GI50 [9]: 17.2 µM (inactive); GI50 [10]: 32.7 µM (inactive); GI50 [11]: 16.3 µM (inactive); GI50 [12]: 10.2 µM (inactive); GI50 [13]: 14.2 µM; GI50 [14]: 3.33 µM (inactive); GI50 [15]: 24.5 µM (inactive); GI50 [16]: 6.64 µM (inactive); GI50 [17]: 3.55 µM (inactive); GI50 [18]: 37.8 µM (inactive); GI50 [19]: 80.2 µM (inactive); GI50 [20]: 3.4 µM (inactive); GI50 [21]: 22.2 µM (inactive); GI50 [22]: 2.81 µM (inactive); GI50 [23]: 16.4 µM (inactive); GI50 [24]: 14.4 µM (inactive); GI50 [25]: 23.2 µM (inactive); GI50 [26]: 25.6 µM (inactive); GI50 [27]: 16.7 µM (inactive); GI50 [28]: 7.59 µM (inactive); GI50 [29]: 17.3 µM (inactive); GI50 [30]: 19.7 µM (inactive); GI50 [31]: 18.3 µM (inactive); GI50 [32]: 23 µM (inactive); GI50 [33]: 7.23 µM (inactive); GI50 [34]: 30.4 µM (inactive); GI50 [35]: 17 µM (inactive); GI50 [59]: > 39.4 µM (inactive); GI50 [36]: 17.9 µM (inactive); GI50 [37]: 15.9 µM (inactive); GI50 [38]: 22.2 µM (inactive); GI50 [39]: 3.9 µM (inactive); GI50 [40]: 12.9 µM (inactive); GI50 [41]: 24.4 µM (inactive); GI50 [42]: > 50.5 µM (inactive); GI50 [44]: 20 µM (inactive); GI50 [45]: 20.6 µM (inactive); GI50 [46]: 1.75 µM (inactive); GI50 [47]: 71.8 µM (inactive); GI50 [48]: 10.8 µM (inactive); GI50 [49]: 26.1 µM (inactive); GI50 [50]: 1.53 µM (inactive); GI50 [51]: 6.27 µM (inactive); GI50 [52]: 3.72 µM (inactive); GI50 [53]: 17.5 µM (inactive); GI50 [54]: 15.8 µM (inactive); GI50 [55]: 20.7 µM (inactive); GI50 [56]: 21.2 µM (inactive); GI50 [57]: 17.3 µM (inactive); GI50 [58]: 17 µM (inactive)
